Measurements taken from patent publication US10577362B2, “Substituted 2, 4-diamino-quinoline derivatives for use in the treatment of proliferative diseases” (GENOSCIENCE PHARMA, priority 2016, dated 2020).
pEC50: −log10 of the molar value. Structures can show the parent of a compound that is named as a salt.

Key:
Type in all cases: cell-based, human
[1] = test system: MOLM-14 (acute myeloid leukemia) cell line; experiment: CellTiter-Glo luminescent cell viability assay, MOLM-14; settings: Homo sapiens; for pEC50: MOLM-14 cell line, 72 h incubation, CellTiter-Glo, read-out: EC50, growth inhibition of MOLM-14; for viability at 4 µM: MOLM-14, compound at 4 μM; for viability at 4 µM / viability at 10 µM: 72 h; for viability at 10 µM: MOLM-14, compound at 10 μM
Procedure: (§1) All cell lines were maintained in medium containing 1% penicillin-streptomycin (Dutscher, P06-07100) and 10% Fetal Bovine Serum (Hyclone Dutscher, RZK35922) cultured at 37° C. with 5% CO2. HepG2 (hepatocellular carcinoma), cell line was cultured in Dulbecco's modified Eagle's medium low glucose (Gibco, 21885025), Huh7 (hepatocellular carcinoma), HCT-116 (colorectal carcinoma), PANC-1 (prancreatic carcinoma) and A375 (malignant melanoma) cell lines were cultured in Dulbecco's modified Eagle's medium (Dutscher, L0103). MOLM-14 (acute myeloid leukemia) cell line was maintained in MEM alpha medium (Gibco, 22561-021). 786-0 (renal adenocarcinoma) cell lines were maintained in RPMI 1640 medium (Dutscher, L0498).
(§2) Cell viability was measured using the CellTiter-Glo® luminescent cell viability assay as described by the manufacturer (Promega, Ref G7571) using an Infinite F200Pro luminometer (Tecan). Briefly, for adherent cells, cells were plated onto 96-well plates (white with clear bottom) in 90 μL of media per well and were allowed to grow overnight before the assay. For cells growing in suspension, cells were plated onto 96-well plates 1 h before the assay.
(§3) Compounds were resuspended in H2O or DMSO and added at different concentrations to each well, and cell cultures were incubated for 72 h. Each diluent (H2O or DMSO) were used as a control, and all compounds were tested in a constant percentage of H2O or DMSO. On the day of the reading, plates are equilibrated 30 min at room temperature before the addition of 100 μL of CellTiter-Glo® and luminescence was measured using an Infinite F200Pro (Tecan). % cell viability were expressed as a percentage of the signal obtained for cell cultures treated with diluent. EC50 values were determined as the dose of compound required to reduce luminescent values to 50% of the signal obtained for cell cultures treated with diluent. The experimental data were analyzed using a computer program, Graphpad Prism v5 (GraphPad Software, Inc. La Jolla, Calif.). All points were at least done in duplicate.

[2] = test system: A375 (malignant melanoma) cell line; experiment: CellTiter-Glo luminescent cell viability assay, A375; settings: Homo sapiens, A-375; for pEC50: A375 cell line, 72 h incubation, CellTiter-Glo, read-out: EC50, growth inhibition of A375; for viability at 4 µM: A375, compound at 4 μM; for viability at 4 µM / viability at 10 µM: 72 h; for viability at 10 µM: A375, compound at 10 μM
Procedure: as §1, §2, §3

[3] = test system: HCT-116 (colorectal carcinoma) cell line; experiment: CellTiter-Glo luminescent cell viability assay, HCT-116; settings: Homo sapiens; for pEC50: HCT-116 cell line, 72 h incubation, CellTiter-Glo, read-out: EC50, growth inhibition of HCT-116; for viability at 4 µM: HCT-116, compound at 4 μM; for viability at 4 µM / viability at 10 µM: 72 h; for viability at 10 µM: HCT-116, compound at 10 μM
Procedure: as §1, §2, §3

[4] = test system: Huh7 (hepatocellular carcinoma) cell line; experiment: CellTiter-Glo luminescent cell viability assay, Huh7; settings: Homo sapiens, Huh-7; for pEC50: Huh7 cell line, 72 h incubation, CellTiter-Glo, read-out: EC50, growth inhibition of Huh7; for viability at 4 µM: Huh7, compound at 4 μM; for viability at 4 µM / viability at 10 µM: 72 h; for viability at 10 µM: Huh7, compound at 10 μM
Procedure: as §1, §2, §3

[5] = test system: 786-O (renal adenocarcinoma) cell line; experiment: CellTiter-Glo luminescent cell viability assay, 786-O; settings: Homo sapiens, 786-0; for pEC50: 786-O cell line, 72 h incubation, CellTiter-Glo, read-out: EC50, growth inhibition of 786-O; for viability at 4 µM / viability at 10 µM: 786-O, 72 h; for viability at 4 µM: compound at 4 μM; for viability at 10 µM: compound at 10 μM
Procedure: as §1, §2, §3

[6] = test system: HepG2 (hepatocellular carcinoma) cell line; experiment: CellTiter-Glo luminescent cell viability assay, HepG2; settings: Homo sapiens; for pEC50: HepG2 cell line, 72 h incubation, CellTiter-Glo, read-out: EC50, growth inhibition of HepG2; for viability at 4 µM / viability at 10 µM: HepG2, HepG, 72 h; for viability at 4 µM: compound at 4 μM; for viability at 10 µM: compound at 10 μM
Procedure: as §1, §2, §3

Row | SMILES | pEC50 [1] | pEC50 [2] | pEC50 [3] | pEC50 [4] | pEC50 [5] | pEC50 [6] | viability at 4 µM [1] [%] | viability at 10 µM [1] [%] | viability at 4 µM [2] [%] | viability at 10 µM [2] [%] | viability at 4 µM [3] [%] | viability at 10 µM [3] [%] | viability at 4 µM [4] [%] | viability at 10 µM [4] [%] | viability at 4 µM [5] [%] | viability at 10 µM [5] [%] | viability at 4 µM [6] [%] | viability at 10 µM [6] [%]
1 | N#Cc1c(NCc2ccc(Cl)cc2)nc2ccccc2c1N1CCC(Oc2ccc(F)cc2)CC1 [Compound 2942CN, 2-(4-chlorobenzylamino)-3-cyano-4-[4-(4-fluorophenoxy)piperidin-1-yl]quinoline] | – | – | – | – | – | – | 98.2 | 88.1 | 101 | 94.9 | 91 | 75.1 | 94.3 | 87.9 | 87.7 | 81.3 | 99.1 | 75.3
2 | Cc1nccnc1OC1CCN(c2c(C#N)c(NCc3ccc(Cl)cc3)nc3ccccc23)C1 (centres unmarked) [Compound 3362CN, 2-(4-chlorobenzylamin)-3-cyano-4-{3-[(3-methylpyrazin-2-yl)oxy]pyrrolidin-1-yl}quinoline] | – | – | – | – | – | – | 105 | 88.6 | 81.6 | 68.6 | 46.8 | 31.4 | 66.7 | 35.1 | 15.3 | 5.6 | 78.5 | 52.5
3 | N#Cc1c(NCc2ccc(Cl)cc2)nc2ccccc2c1N1CCC(Oc2ccccc2)C1 (centres unmarked) [Compound 3330CN, 2-(4-chlorobenzylamino)-3-cyano-4-(3-phenoxypyrrolidin-1-yl)quinoline] | – | – | – | – | – | – | 102 | 93.6 | 92.9 | 82.4 | 76.8 | 49.7 | 70.6 | 33.7 | 30.4 | 19 | 99.4 | 80.4
4 | Clc1ccc(CNc2cc(N3CCC(Oc4ccccc4)CC3)c3ccccc3n2)cc1 [Compound 2940, 2-(4-chlorobenzylamino)-4-(4-phenoxypiperidin-1-yl)-quinoline hydrochloride] | 5.30 to 6.30 | 5.00 to 5.30 | 5.30 to 6.30 | 5.00 to 5.30 | 5.30 to 6.30 | 5.30 to 6.30 | – | – | – | – | – | – | – | – | – | – | – | –
5 | N#Cc1c(NCc2ccc(Cl)cc2)nc2ccccc2c1N1CCC(Oc2cccc(F)c2)CC1 [Compound 3228CN, 2-(4-chlorobenzylamino)-3-cyano-4-[4-(3-fluorophenoxy)piperidin-1-yl]quinoline] | – | – | – | – | – | – | 107 | 100 | 98 | 91.7 | 101 | 85.2 | 117 | 108 | 97.9 | 92.9 | 96.7 | 86.7
6 | N#Cc1c(NCc2ccc(Cl)cc2)nc2ccccc2c1N1CCCC(Oc2ccccc2)C1 (centres unmarked) [Compound 3206CN, 2-(4-chlorobenzylamino)-3-cyano-4-(3-phenoxypiperidin-1-yl)quinoline] | – | – | – | – | – | – | 96 | 107 | 111 | 104 | 97.9 | 91.2 | 107 | 95.1 | 79.9 | 75.1 | 72.4 | 65
7 | CC(C)(C)NC1CCN(c2c(C#N)c(NCc3ccc(Cl)cc3)nc3ccccc23)CC1 [Compound 352CN, 2-(4-chlorobenzylamino)-3-cyano-4-[4-(tert-butylamino)piperidin-1-yl]quinoline] | – | – | – | – | – | – | 76.9 | 0.6 | 29.1 | 0.5 | 43.9 | 0.5 | 73.2 | 0.6 | 52.4 | 0.5 | 71.2 | 0.6
8 | CNC(=O)C1CCN(c2cc(NCc3ccc(Cl)cc3)nc3ccccc23)CC1 [Compound 1598, 2-(4-chlorobenzylamino)-4-[4-(methylcarbamoyl)piperidin-1-yl]quinoline hydrochloride] | 5.00 to 5.30 | 5.00 to 5.30 | 5.30 to 6.30 | 5.30 to 6.30 | 5.00 to 5.30 | 5.30 to 6.30 | – | – | – | – | – | – | – | – | – | – | – | –
9 | N#Cc1c(NCc2ccc(Cl)cc2)nc2ccccc2c1N1CCC(Oc2ccncc2)C1 (centres unmarked) [Compound 3344CN, 2-(4-chlorobenzylamino)-3-cyano-4-{3-[(pyridin-4-yl)oxy]pyrrolidin-1-yl}quinoline] | – | – | – | – | – | – | 103 | 57.8 | 83.7 | 60.3 | 91.6 | 48 | 50.2 | 40.1 | 81.9 | 52.6 | 94.1 | 62.7
10 | OC1CCN(c2cc(NCc3ccc(Cl)cc3)nc3ccccc23)CC1 [Compound 2916, 2-(4-chlorobenzylamino)-4-(4-hydroxypiperidin-1-yl)quinoline, hydrochloride] | – | 5.00 to 5.30 | 5.00 to 5.30 | 5.30 to 6.30 | 5.00 to 5.30 | 5.30 to 6.30 | – | – | – | – | – | – | – | – | – | – | – | –

Second part, led by results:

Row | pEC50 [1] | pEC50 [2] | pEC50 [3] | pEC50 [4] | pEC50 [5] | pEC50 [6] | SMILES | viability at 4 µM [1] [%] | viability at 10 µM [1] [%] | viability at 4 µM [2] [%] | viability at 10 µM [2] [%] | viability at 4 µM [3] [%] | viability at 10 µM [3] [%] | viability at 4 µM [4] [%] | viability at 10 µM [4] [%] | viability at 4 µM [5] [%] | viability at 10 µM [5] [%] | viability at 4 µM [6] [%] | viability at 10 µM [6] [%]
11 | 5.30 to 6.30 | 5.00 to 5.30 | 5.00 to 5.30 | 5.30 to 6.30 | 5.00 to 5.30 | 5.30 to 6.30 | Clc1ccc(CNc2cc(N3CCC(Oc4cnccn4)CC3)c3ccccc3n2)cc1 [Compound 2958, 2-(4-chlorobenzylamino)-4-[4-(pyrazin-2-yloxy)piperidin-1-yl]quinoline hydrochloride] | – | – | – | – | – | – | – | – | – | – | – | –
12 | 5.30 to 6.30 | 5.30 to 6.30 | 5.30 to 6.30 | 5.00 to 5.30 | 5.30 to 6.30 | 5.30 to 6.30 | CC(C)(C)NC1CCN(c2c(F)c(NCc3ccc(Cl)cc3)nc3ccccc23)CC1 [Compound 348, 2-(4-chlorobenzylamino)-3-fluoro-4-[4-(tert-butylamino)piperidin-1-yl]quinoline Hydrochloride Salt] | – | – | – | – | – | – | – | – | – | – | – | –
13 | 5.30 to 6.30 | 5.30 to 6.30 | 5.30 to 6.30 | – | 5.30 to 6.30 | 5.30 to 6.30 | Cc1cc(F)cc2c(N3CCC(NC(C)(C)C)CC3)cc(NCc3ccc(Cl)cc3)nc12 [Compound 580, 2-(4-chlorobenzylamino)-4-[4-(tert-butylamino)piperidin-1-yl]-6-fluoro-8-methylquinoline] | – | – | – | – | – | – | – | – | – | – | – | –
14 | 5.30 to 6.30 | 5.00 to 5.30 | 5.30 to 6.30 | 5.00 to 5.30 | 5.00 to 5.30 | 5.30 to 6.30 | CC(C)OC1CCN(c2cc(NCc3ccc(Cl)cc3)nc3ccccc23)CC1 [Compound 2918, 2-(4-chlorobenzylamino)-4-[4-(iso-propoxy)-piperidin-1-yl]-quinoline hydrochloride] | – | – | – | – | – | – | – | – | – | – | – | –
15 | 5.30 to 6.30 | 5.30 to 6.30 | 5.30 to 6.30 | 5.30 to 6.30 | 5.30 to 6.30 | 5.30 to 6.30 | Clc1ccc(CNc2cc(N3CCC(Oc4ccncc4)CC3)c3ccccc3n2)cc1 [Compound 2950, 2-(4-chlorobenzylamino)-4-[4-(pyridin-4-yloxy)piperidin-1-yl]quinoline hydrochloride] | – | – | – | – | – | – | – | – | – | – | – | –
16 | – | – | – | 5.30 to 6.30 | – | – | O=C(C1CCN(c2cc(NCc3ccc(Cl)cc3)nc3ccccc23)CC1)N1CCCC1 [Compound 1648, 2-(4-chlorobenzylamino)-4-[4-(pyrrolidine-1-carbonyl)piperidin-1-yl]quinoline, hydrochloride] | – | – | – | – | – | – | – | – | – | – | – | –
